What all share (assay type): biochemical
In one assay the target is T1, JAK3 (Homo sapiens, UniProt P52333).
T1 construct: purchased Invitrogen Corporation, Carlsbad, Calif; IVGN PV4080
T1 sequence (P52333 1-1124): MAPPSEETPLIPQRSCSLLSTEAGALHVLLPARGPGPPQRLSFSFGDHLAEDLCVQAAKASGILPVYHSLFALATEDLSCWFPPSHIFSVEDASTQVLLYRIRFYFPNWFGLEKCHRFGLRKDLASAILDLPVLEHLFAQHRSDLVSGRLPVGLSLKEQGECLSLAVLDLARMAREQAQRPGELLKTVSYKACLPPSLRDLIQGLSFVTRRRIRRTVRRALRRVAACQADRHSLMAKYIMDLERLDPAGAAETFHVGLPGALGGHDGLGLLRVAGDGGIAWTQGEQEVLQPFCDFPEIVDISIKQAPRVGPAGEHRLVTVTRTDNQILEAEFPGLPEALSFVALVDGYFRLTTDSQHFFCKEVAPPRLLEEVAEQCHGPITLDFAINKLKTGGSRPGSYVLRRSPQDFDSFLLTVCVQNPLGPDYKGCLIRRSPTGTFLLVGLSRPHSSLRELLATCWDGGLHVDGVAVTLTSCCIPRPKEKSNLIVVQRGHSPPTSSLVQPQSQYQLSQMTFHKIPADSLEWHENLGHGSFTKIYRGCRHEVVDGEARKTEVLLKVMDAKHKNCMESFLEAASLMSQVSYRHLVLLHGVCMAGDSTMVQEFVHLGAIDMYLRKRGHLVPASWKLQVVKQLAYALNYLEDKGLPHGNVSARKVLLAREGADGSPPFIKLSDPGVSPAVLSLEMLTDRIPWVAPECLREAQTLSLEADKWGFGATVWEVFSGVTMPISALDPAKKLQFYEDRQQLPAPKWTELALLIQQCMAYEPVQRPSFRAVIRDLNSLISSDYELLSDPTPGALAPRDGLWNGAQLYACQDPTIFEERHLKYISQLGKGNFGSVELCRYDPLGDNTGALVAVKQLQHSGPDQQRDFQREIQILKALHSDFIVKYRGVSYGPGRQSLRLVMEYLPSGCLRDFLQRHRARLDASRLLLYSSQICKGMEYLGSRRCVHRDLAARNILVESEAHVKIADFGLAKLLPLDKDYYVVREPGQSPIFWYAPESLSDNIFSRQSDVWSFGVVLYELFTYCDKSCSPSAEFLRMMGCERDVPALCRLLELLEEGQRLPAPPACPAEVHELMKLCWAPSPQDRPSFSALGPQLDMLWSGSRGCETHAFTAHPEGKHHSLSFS
In words: JAK3 Inhibition Assay (Omnia kinase fluorescence peptide substrate). Conditions: averaged IC50 ranges; 10 μM (Km app) or 1 mM ATP, 2.5 nM JAK3. The essentials: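 IC50 is the concentration giving 50 percent of control on a 4-parameter logistic fit of 10-point, 3-fold dilutions from a 10 μM top dose, at 2% final DMSO. Kinetic Sox fluorescence (360/485 nm) was monitored every 50 s for 45 min. Mix: JAK3 2.5 nM, Omnia Y7 peptide 10 μM, ATP 10 μM (Km app) or 1 mM, in HEPES pH 7.4 buffer with MgCl2, Triton X-100 and DTT.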

The target of a further assay is T2, JAK2 (Homo sapiens, UniProt O60674).
T2 construct: purchased Invitrogen Corporation, Carlsbad, Calif; IVGN PV4288
T2 sequence (O60674 whole entry): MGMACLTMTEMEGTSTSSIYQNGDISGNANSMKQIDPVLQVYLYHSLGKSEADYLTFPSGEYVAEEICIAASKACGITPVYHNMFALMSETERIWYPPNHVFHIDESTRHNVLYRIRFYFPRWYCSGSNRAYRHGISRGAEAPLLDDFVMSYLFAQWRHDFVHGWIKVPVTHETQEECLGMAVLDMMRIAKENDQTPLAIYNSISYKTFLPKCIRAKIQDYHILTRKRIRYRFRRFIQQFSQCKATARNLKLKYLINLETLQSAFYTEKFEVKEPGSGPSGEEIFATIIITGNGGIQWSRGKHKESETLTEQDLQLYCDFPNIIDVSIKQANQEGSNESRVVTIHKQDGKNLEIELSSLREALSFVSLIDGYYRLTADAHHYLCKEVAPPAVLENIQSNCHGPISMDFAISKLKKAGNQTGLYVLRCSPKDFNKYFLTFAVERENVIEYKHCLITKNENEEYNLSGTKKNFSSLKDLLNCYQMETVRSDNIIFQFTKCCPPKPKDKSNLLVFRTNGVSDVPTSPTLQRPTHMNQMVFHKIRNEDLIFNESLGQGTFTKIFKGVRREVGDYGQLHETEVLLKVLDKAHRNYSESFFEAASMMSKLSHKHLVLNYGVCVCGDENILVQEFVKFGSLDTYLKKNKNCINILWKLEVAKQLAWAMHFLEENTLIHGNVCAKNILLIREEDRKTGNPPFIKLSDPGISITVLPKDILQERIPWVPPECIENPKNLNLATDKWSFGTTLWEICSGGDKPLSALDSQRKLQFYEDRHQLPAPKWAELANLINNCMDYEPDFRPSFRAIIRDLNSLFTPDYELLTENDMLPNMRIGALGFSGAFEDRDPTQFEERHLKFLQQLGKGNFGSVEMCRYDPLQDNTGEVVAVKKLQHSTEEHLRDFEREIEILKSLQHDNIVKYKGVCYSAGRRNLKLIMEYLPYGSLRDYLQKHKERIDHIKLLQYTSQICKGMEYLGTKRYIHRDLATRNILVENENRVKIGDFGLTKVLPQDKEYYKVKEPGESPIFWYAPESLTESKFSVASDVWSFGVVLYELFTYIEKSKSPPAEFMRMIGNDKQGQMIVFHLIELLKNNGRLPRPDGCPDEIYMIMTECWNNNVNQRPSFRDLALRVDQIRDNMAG
In words: JAK2 Inhibition Assay (Omnia kinase fluorescence peptide substrate). Conditions: averaged IC50 ranges; 25 μM (Km app) or 1 mM ATP, 5 nM JAK2.

For a further assay, the target named is T3, JAK1 (Homo sapiens, UniProt P23458).
T3 construct: purchased Invitrogen Corporation, Carlsbad, Calif; IVGN PV4775
T3 sequence (P23458 whole entry): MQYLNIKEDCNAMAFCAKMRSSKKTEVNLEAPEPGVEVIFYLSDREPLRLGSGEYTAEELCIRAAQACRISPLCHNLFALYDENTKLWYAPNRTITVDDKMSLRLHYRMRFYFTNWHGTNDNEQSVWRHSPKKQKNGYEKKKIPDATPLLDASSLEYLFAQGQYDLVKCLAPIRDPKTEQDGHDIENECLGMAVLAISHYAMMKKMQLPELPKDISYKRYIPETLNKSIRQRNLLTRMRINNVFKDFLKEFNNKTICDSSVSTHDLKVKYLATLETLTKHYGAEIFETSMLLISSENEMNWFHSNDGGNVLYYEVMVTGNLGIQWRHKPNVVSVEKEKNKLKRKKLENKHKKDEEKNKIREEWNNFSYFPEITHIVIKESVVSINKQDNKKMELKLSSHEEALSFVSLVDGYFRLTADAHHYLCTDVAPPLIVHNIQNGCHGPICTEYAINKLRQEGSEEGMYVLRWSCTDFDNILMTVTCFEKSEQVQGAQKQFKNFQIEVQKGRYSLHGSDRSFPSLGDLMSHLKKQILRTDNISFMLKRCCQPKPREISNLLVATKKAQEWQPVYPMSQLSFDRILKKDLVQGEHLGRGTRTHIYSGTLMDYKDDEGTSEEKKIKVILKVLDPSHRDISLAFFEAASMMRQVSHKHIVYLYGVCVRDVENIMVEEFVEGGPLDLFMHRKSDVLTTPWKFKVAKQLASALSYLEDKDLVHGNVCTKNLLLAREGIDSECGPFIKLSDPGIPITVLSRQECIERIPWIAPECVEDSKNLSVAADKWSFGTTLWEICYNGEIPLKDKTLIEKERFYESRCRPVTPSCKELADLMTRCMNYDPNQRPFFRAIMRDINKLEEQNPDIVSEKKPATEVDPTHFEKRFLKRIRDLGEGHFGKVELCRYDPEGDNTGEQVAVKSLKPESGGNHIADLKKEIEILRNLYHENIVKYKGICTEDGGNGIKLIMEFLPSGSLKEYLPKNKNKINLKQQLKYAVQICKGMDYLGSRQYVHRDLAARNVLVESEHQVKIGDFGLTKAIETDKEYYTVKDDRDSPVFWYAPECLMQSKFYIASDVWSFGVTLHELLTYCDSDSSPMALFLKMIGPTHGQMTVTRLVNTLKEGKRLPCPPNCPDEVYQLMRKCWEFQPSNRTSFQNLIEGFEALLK
In words: JAK1 Inhibition Assay (Omnia kinase fluorescence peptide substrate). To be noted: averaged IC50 ranges; 40 μM (Km app) or 1 mM ATP, 15 nM JAK1. Put shortly:
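15 nM JAK1, 8 μM Omnia Y12 peptide, 40 μM (Km app) or 1 mM ATP; 25 mM HEPES pH 7.4, 10 mM MgCl2, 2% DMSO. Fluorescence (ex 360/em 485 nm) read every 50 s over 45 min. IC50 by 4-parameter fit of percent of control, top dose 10 μM.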

The target of a further assay is T4, Human Tyk2 kinase domain (Homo sapiens, UniProt P29597).
T4 construct: comprising amino acids 886 to 1187; His10 (10 histidine residues) (C, cleaved yes); made in house
T4 sequence (P29597 886-1187): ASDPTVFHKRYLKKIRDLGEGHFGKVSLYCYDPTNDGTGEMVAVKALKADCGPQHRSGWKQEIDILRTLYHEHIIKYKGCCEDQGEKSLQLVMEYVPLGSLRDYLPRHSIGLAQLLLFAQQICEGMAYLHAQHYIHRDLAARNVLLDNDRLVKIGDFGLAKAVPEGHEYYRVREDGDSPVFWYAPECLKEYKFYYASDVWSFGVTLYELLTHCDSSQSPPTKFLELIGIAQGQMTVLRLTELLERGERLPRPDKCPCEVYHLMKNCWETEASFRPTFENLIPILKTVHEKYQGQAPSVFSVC
In words: Tyk2 Inhibition Assay (Omnia kinase fluorescence peptide substrate). To be noted: averaged IC50 ranges; 10 μM (Km app) or 1 mM ATP, 2 nM Tyk2. The essentials: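 Phosphorylation of 8 μM Omnia Y12 peptide followed kinetically by Sox fluorescence, ex 360/em 485 nm, every 50 s for 45 min. Enzyme: 2 nM Tyk2 kinase domain (aa 886–1187, His tag removed); ATP at 10 μM (Km app) or 1 mM; buffer HEPES pH 7.4 with MgCl2, Triton X-100, DTT. 10-point curves up to 10 μM, IC50 from 4-parameter logistic fit.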

For orientation: IC50 means the point on the concentration scale where inhibition reaches its midpoint. A lower IC50 goes with greater potency.

For `CCC(CCCO)n1cc(-c2nc(-c3cnn(C)c3)cc3nccn23)cn1` (stereo not drawn) [Example 65, 4-(4-(7-(1-methyl-1H-pyrazol-4-yl)imidazo[1,2-c]pyrimidin-5-yl)-1H-pyrazol-1-yl)hexan-1-ol], the IC50 on JAK3 fell in the range of 100 to 1000 nM; against JAK2, 100 to 1000 nM; on JAK1, 100 to 1000 nM; against Human Tyk2 kinase domain it was 10 to 100 nM.

As for `Cn1cc(-c2cc3nccn3c(-c3cnn(C(CCF)C4CCCC4)c3)n2)cn1` (stereo not drawn) [Example 66, 5-(1-(1-cyclopentyl-3-fluoropropyl)-1H-pyrazol-4-yl)-7-(1-methyl-1H-pyrazol-4-yl)imidazo[1,2-c]pyrimidine], the IC50 against JAK3 was 100 to 1000 nM; on JAK2, 10 to 100 nM; at JAK1, 100 to 1000 nM; on Human Tyk2 kinase domain, less than 10 nM.

As for `CCOCCC(C1CCC1)n1cc(-c2nc(-c3cnn(C)c3)cc3nccn23)cn1` (stereo not drawn) [Example 67, 5-(1-(1-cyclobutyl-3-ethoxypropyl)-1H-pyrazol-4-yl)-7-(1-methyl-1H-pyrazol-4-yl)imidazo[1,2-c]pyrimidine], the IC50 on JAK3 is more than 1000 nM; on JAK2, 100 to 1000 nM; against JAK1 it was more than 1000 nM; on Human Tyk2 kinase domain, 100 to 1000 nM.

`Cn1cc(-c2cc3nccn3c(-c3cnn(C(CCO)C4CCC4)c3)n2)cn1` (stereo not drawn) [Example 68, 3-cyclobutyl-3-(4-(7-(1-methyl-1H-pyrazol-4-yl)imidazo[1,2-c]pyrimidin-5-yl)-1H-pyrazol-1-yl)propan-1-ol]: the IC50 at JAK3 was more than 1000 nM; on JAK2, more than 1000 nM; against JAK1, more than 1000 nM; against Human Tyk2 kinase domain, 100 to 1000 nM.

As for `Cn1cc(-c2cc3nccn3c(-c3cnn(C(CCF)C4CCC4)c3)n2)cn1` (stereo not drawn) [Example 69, 5-(1-(1-cyclobutyl-3-fluoropropyl)-1H-pyrazol-4-yl)-7-(1-methyl-1H-pyrazol-4-yl)imidazo[1,2-c]pyrimidine], the IC50 against JAK3 is 100 to 1000 nM; against JAK2, 10 to 100 nM; at JAK1, 100 to 1000 nM; against Human Tyk2 kinase domain, less than 10 nM.

Consider `COCCC(C1CCCC1)n1cc(-c2nc(-c3cnn(C)c3)cc3nccn23)cn1` (stereo not drawn) [Example 70, 5-(1-(1-cyclopentyl-3-methoxypropyl)-1H-pyrazol-4-yl)-7-(1-methyl-1H-pyrazol-4-yl)imidazo[1,2-c]pyrimidine], for which the IC50 on JAK3 is more than 1000 nM; at JAK2, more than 1000 nM; against JAK1 it was more than 1000 nM; against Human Tyk2 kinase domain it was 100 to 1000 nM.

In the case of `COCCC(C1CCCCC1)n1cc(-c2nc(-c3cnn(C)c3)cc3nccn23)cn1` (stereo not drawn) [Example 71, 5-(1-(1-cyclohexyl-3-methoxypropyl)-1H-pyrazol-4-yl)-7-(1-methyl-1H-pyrazol-4-yl)imidazo[1,2-c]pyrimidine], the IC50 on JAK3, on JAK2, against JAK1 and at Human Tyk2 kinase domain was more than 1000 nM each time.

As to `Cn1cc(-c2cc3nccn3c(-c3cnn(C(CCO)C4CCCC4)c3)n2)cn1` (stereo not drawn) [Example 72, 3-cyclopentyl-3-(4-(7-(1-methyl-1H-pyrazol-4-yl)imidazo[1,2-c]pyrimidin-5-yl)-1H-pyrazol-1-yl)propan-1-ol], the IC50 was more than 1000 nM against JAK3, more than 1000 nM against JAK2, more than 1000 nM on JAK1 and 100 to 1000 nM against Human Tyk2 kinase domain.

In the case of `Cn1cc(-c2cc3nccn3c(-c3cnn(C(CCO)C4CCCCC4)c3)n2)cn1` (stereo not drawn) [Example 73, 3-cyclohexyl-3-(4-(7-(1-methyl-1H-pyrazol-4-yl)imidazo[1,2-c]pyrimidin-5-yl)-1H-pyrazol-1-yl)propan-1-ol], the IC50 at JAK3 was more than 1000 nM; at JAK2 it was 100 to 1000 nM; against JAK1, more than 1000 nM; against Human Tyk2 kinase domain, 100 to 1000 nM.

On to `COCCC(C1CC1)n1cc(-c2nc(-c3cnn(C)c3)cc3nccn23)cn1` (stereo not drawn) [Example 74, 5-(1-(1-cyclopropyl-3-methoxypropyl)-1H-pyrazol-4-yl)-7-(1-methyl-1H-pyrazol-4-yl)imidazo[1,2-c]pyrimidine], for which the IC50 at JAK3 is more than 1000 nM; against JAK2, 100 to 1000 nM; against JAK1, more than 1000 nM; against Human Tyk2 kinase domain, 10 to 100 nM.

Consider `COCCC(C1CCC1)n1cc(-c2nc(-c3cnn(C)c3)cc3nccn23)cn1` (stereo not drawn) [Example 76, 5-(1-(1-cyclobutyl-3-methoxypropyl)-1H-pyrazol-4-yl)-7-(1-methyl-1H-pyrazol-4-yl)imidazo[1,2-c]pyrimidine], for which the IC50 on JAK3 is more than 1000 nM; on JAK2, 100 to 1000 nM; on JAK1, more than 1000 nM; against Human Tyk2 kinase domain it was 100 to 1000 nM.

Turning to `COC(=O)CC(c1ccccc1)n1cc(-c2nc(-c3cnn(C)c3)cc3nccn23)cn1` (stereo not drawn) [Example 77, methyl 3-(4-(7-(1-methyl-1H-pyrazol-4-yl)imidazo[1,2-c]pyrimidin-5-yl)-1H-pyrazol-1-yl)-3-phenylpropanoate], the half-maximal inhibitory concentration (IC50) at JAK3, against JAK2, against JAK1 and against Human Tyk2 kinase domain was 100 to 1000 nM throughout.

As for `O=S(=O)(N1CC(CCF)(n2cc(-c3nc(-c4cn[nH]c4)cc4nccn34)cn2)C1)C(F)(F)F` [Example 78, 5-(1-(3-(2-fluoroethyl)-1-((trifluoromethyl)sulfonyl)azetidin-3-yl)-1H-pyrazol-4-yl)-7-(1H-pyrazol-4-yl)imidazo[1,2-c]pyrimidine], the IC50 is 100 to 1000 nM against JAK3, 10 to 100 nM at JAK2, 10 to 100 nM at JAK1 and less than 10 nM on Human Tyk2 kinase domain.

As to `Cn1ccc(-c2cc3nccn3c(-c3cnn(C4(CCF)CN(S(=O)(=O)C(F)(F)F)C4)c3)n2)cc1=O` [Example 79, 4-(5-(1-(3-(2-fluoroethyl)-1-((trifluoromethyl)sulfonyl)azetidin-3-yl)-1H-pyrazol-4-yl)imidazo[1,2-c]pyrimidin-7-yl)-1-methylpyridin-2(1H)-one], the IC50 against JAK3 was in the range of 100 to 1000 nM; against JAK2 it was 100 to 1000 nM; on JAK1, 100 to 1000 nM; against Human Tyk2 kinase domain, 10 to 100 nM.

For `COC(=O)CC(c1ccc(F)cc1)n1cc(-c2nc(-c3cnn(C)c3)cc3nccn23)cn1` (stereo not drawn) [Example 80, methyl 3-(4-fluorophenyl)-3-(4-(7-(1-methyl-1H-pyrazol-4-yl)imidazo[1,2-c]pyrimidin-5-yl)-1H-pyrazol-1-yl)propanoate], the IC50 against JAK3 is more than 1000 nM; at JAK2 it was 100 to 1000 nM; at JAK1, more than 1000 nM; against Human Tyk2 kinase domain it was 100 to 1000 nM.

For the origin of these results see patent publication US20140228349A1, “5,7-SUBSTITUTED-IMIDAZO[1,2-C]PYRIMIDINES” (Array BioPharma Inc., priority 2011, published 2014).
